# Experimental data as given in paper PMC12916490 (Molecular Psychiatry, 2025).
# Molecular target: T1, hα1A (Homo sapiens, UniProt P35348)
# T1 construct: expressed in transfected cells; host or cells: Chinese hamster ovary cells (membrane preparation)
# T1 sequence (P35348 1-466): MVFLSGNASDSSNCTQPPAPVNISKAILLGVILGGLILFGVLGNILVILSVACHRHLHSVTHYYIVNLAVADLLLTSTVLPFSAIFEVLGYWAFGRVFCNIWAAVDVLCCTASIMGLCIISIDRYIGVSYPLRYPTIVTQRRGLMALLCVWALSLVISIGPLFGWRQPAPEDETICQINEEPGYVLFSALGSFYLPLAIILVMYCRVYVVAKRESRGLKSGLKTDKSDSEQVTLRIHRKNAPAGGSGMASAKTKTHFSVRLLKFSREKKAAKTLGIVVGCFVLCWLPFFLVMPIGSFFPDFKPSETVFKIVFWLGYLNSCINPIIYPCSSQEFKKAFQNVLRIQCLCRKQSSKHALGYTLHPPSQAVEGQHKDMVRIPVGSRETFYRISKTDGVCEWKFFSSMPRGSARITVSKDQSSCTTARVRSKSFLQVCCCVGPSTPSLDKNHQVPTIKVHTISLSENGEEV
# Test: Radioligand binding, hα1A receptor ([3H]prazosin)
# Protocol: Binding affinities at human monoamine receptors and transporters were assessed as previously reported. A detailed description of the methodology is provided in the Supplementary information.
# Data analysis was performed with Prism software (version 10.1.2, GraphPad Software, Boston, MA, USA). The IC50 values from the radioligand binding assays were determined by nonlinear regression, using three independent concentration-response curves fitted to a one-site model. The Cheng-Prusoff equation was used to calculate Kᵢ values for the competing ligands. EC50 values were determined by applying nonlinear regression to concentration-response curves. Bias factors (β) were calculated based on the relative intrinsic activity approach. More detailed information can be found in the Supplementary information. Mean values for total number of HTR, change in body temperature from pre to post session (Δ°C), and total distance traveled (cm) for each drug dose were compared (p < 0.05) via Welch’s ANOVA with Dunnett’s T3 post test, comparing all doses to respective vehicle controls (0 mg/kg). Welch’s ANOVA with Dunnett’s T3 post test was also used to compare drug concentrations, but the data were compared to DOM in this case. Dose–response relationships for HTR and locomotor activities were plotted using bell-shaped curve fits, while temperature change data were plotted using four-parameter non-linear regression curve fits. The ascending phase of the HTR curve for each drug was used to determine ED50 potency values from four parameter non-linear regression fits. For combined DOM and DOAM administration, the plasma, brain tissue, and brain dialysate drug concentrations were compared using paired t-tests (p < 0.05). Ratios were compared using Holm-Sidak’s post hoc test following a repeated-measures one-way ANOVA (F (1.709, 6.835) = 70.80; p < 0.0001).
# 3.1 Assessment of receptor and transporter binding affinities
# Membrane preparations were prepared from cells transfected with the respective target. The membrane preparations were then incubated with selective radioligands at concentrations equal to the corresponding Kd and displacement of the ligand by the drugs was measured. The difference between total binding and nonspecific binding (determined in the presence of selective competitors) was defined as specific binding of the radioligand to the target receptor. The following transfected cell lines were used for the binding assays: HEK 293 cells (h5-HT1A, h5-HT2A, h5-HT2B, h5-HT2C, and hD2 receptors, hDAT, hNET, and hSERT), Chinese hamster ovary cells (hα 1A receptor), and Chinese hamster lung cells (hα 2A receptor).
# 3.1.1 Membrane preparations for receptor and transporter binding
# For producing membrane preparations, transfected cells were harvested with trypsin/EDTA, washed with ice-cold phosphate buffered saline, and then pelleted by centrifugation (210 × g for 5 min at 4 °C). The pellets were frozen and stored at -80 °C until use. Frozen pellets were resuspended in 20 m L (receptor binding) or 400 m L (transporter binding) buffer (20 mM HEPES -NaOH, 10 mM EDTA, pH 7.4), and homogenized at 1,100 × g for 20 s (receptor binding) or 560 × g for 15 s (transporter binding); the homogenates were then centrifuged at 48,000 × g for 30 min at 4 °C. For receptor binding assays, the supernatants were discarded and the pellets were resuspended in 20 mL buffer (20 mM HEPES-NaOH, 0.1 mM EDTA, pH 7.4) and homogenized at 1 ,100 × g for 20 s. Centrifugation and discarding of the supernatant were repeated once, and the final pellet was then resuspended in buffer and homogenized.
# 3.1.2 Serotonin 5-HT1A and 5-HT2A receptor binding
# Competitive binding at the h5-HT1A and h5-HT2A receptor was determined using 0.90 nM [ 3H]8-hydroxy-2-(di-n-propylamine)tetralin ([ 3H]8-OH-DPAT; h5-HT1A receptor agonist) and 0.40 nM [3H]ketanserin (h5-HT2 receptor antagonist) as radioligands. The density and affinity of [ 3H]8-OH-DPAT […]
row,SMILES,Ki
1,"CCc1cc(OC)c(CC(C)N)cc1OC (stereo not drawn) [DOET, 4-ethyl-2,5-dimethoxyamphetamine]",4.01 µM
2,"CCCCc1cc(OC)c(CC(C)N)cc1OC (stereo not drawn) [DOBU, 4-butyl-2,5-dimethoxyamphetamine]",2.1 µM
3,"CCCc1cc(OC)c(CC(C)N)cc1OC.Cl (stereo not drawn) [DOPR, 4-propyl-2,5-dimethoxyamphetamine hydrochloride]",6.99 µM
4,"COc1ccc(OC)c(CC(C)N)c1.Cl (stereo not drawn) [2,5-DMA, 2,5-Dimethoxyamphetamine hydrochloride]",5.36 µM
5,"COc1cc(CC(C)N)c(OC)cc1C (stereo not drawn) [DOM, 4-methyl-2,5-dimethoxyamphetamine]",7.39 µM
6,"CCCCCc1cc(OC)c(CC(C)N)cc1OC (stereo not drawn) [DOAM, 4-amyl-2,5-dimethoxyamphetamine]",2.52 µM
